The subject of one data set is nuclear localization. Conditions: literature; cited from earlier work.
Data set [1] in a line: Toxicity study: median lethal dose in mice, i.p. The data set is classed as in vivo. Conditions: mouse, in vivo, ip. As to the method: (§1) The doses of compounds of the invention found to be lethal to 50% of the mice (LD50) were determined by intraperitoneal injection of groups of five animals with increasing doses of each compound. CNI-0294 was administered from 0, 2, 10, 20, 40, 80, 160, 320, 640, 1280 mg/kg in 0.5 ml of water/HCl; CNI-1594 at 0, 2.4, 5, 10, 20, 40, 80 mg/kg in 0.5 ml of water/HCl; CNI-1794 at 0, 20, 50, 80 mg/kg in 0.5 ml of water/HCl; and CNI-1894 at 0, 10, 20, 40, 80, 240, 480, 960 mg/kg in water/HCl. […] The percentage of animals in each group which died were utilized to calculate the LD50 by non-linear curve fitting with the Enzfit software (Elsevier Bioscience; Cambridge, UK) programmed with the Chou equation (Chou 1976, J Theor Biol 39:253-276)).
(§2) The compounds (FIGS. 4A-E), were screened for toxicity via a modified LD50 assay procedure as described above in an outbred strain of mice.

In another data set the test system is mice. The data set is described as follows: Toxicity study: median lethal dose in mice, i.p. The format is in vivo. As to the method:
as §1, §2

The nature of a further data set: in vitro. The format is in vitro ADME, mouse (ND4 Swiss Webster). As to the method:
Several female ND4 Swiss Webster mice were euthanized by carbon dioxide inhalation and the livers excised and rinsed with ice cold phosphate buffered saline (pH 7.4). The livers were minced, gently homogenized in 50 mM phosphate buffer (pH 7.4) with a Dounce homogenizer, and centrifuged at 9600×g for 20 min. The post-mitochondrial supernatant was kept, glycerol added to 20%, and frozen at -70° C. in 1.0 ml aliquots until used. For each incubation, 1.0 ml of a 1.0 mg/ml drug solution was added to 3.0 ml of 50 mM phosphate buffer (pH 7.4), 1.0 ml of 2 mg/ml NADPH in 50 mM phosphate (pH 7.4), and 1.0 ml of the post-mitochondrial supernatant. Five hundred μl of each incubate was then immediately transferred to an ice-cold tube to provide the zero-time sample, and addition 500 μl aliquots removed to ice-cold tubes at 8, 15, 30, and 60 min. The samples were then extracted, and analyzed by HPLC as described in section 7.1. Control incubations were also performed where drug or post-mitochondrial supernatant was omitted. […] Peaks in the CNI compound incubations which increased over time, and were not present in control samples lacking the enzyme preparation were treated as putative metabolites.

In data set [2] the test system is Plasmodium falciparum clone D10. The data set is described as follows: Antimalarial activity in vitro, hypoxanthine incorporation, clone D10. The data set is classed as cell-based. Conditions: D10, read-out: CNI-0294 IC50. As to the method:
(§3) The antimalarial activity of the compounds was determined essentially as described in Desjardins et al. supra. Fifty Al of various concentrations of a compound of the invention, chloroquine, or pyrimethamine were added to the wells of microtiter plates, followed by 200 Al of ring-stage, synchronized, P. falciparum-infected erythrocytes (final hematocrit=1.5%, final parasitemia=1-5%). The plates were incubated for 24 hr in a candle jar kept at 37° C., and then 25 μl of [^3 H]-hypoxanthine (Amersham, Arlington Heights, Ill.; 2.5 μl Ci/well) was added. The plates were then incubated for a further 24 hr, before harvesting onto Unifilter-96 GF/C filter-microplates (Packard; Meriden, Conn.). Twenty-five μl of Microscint scintillation fluid (Packard) was added to each well of the filter-microplate, which was subsequently counted in a Top-count microplate scintillation counter (Packard). The percent of [^3 H] -hypoxanthine uptake relative to control infect-erythrocytes was used to determine the IC50 value for the compounds by non-linear regression for LD50 determination.

In data set [3] the test system is Plasmodium falciparum clone Dd2. The data set is described as follows: Antimalarial activity in vitro, hypoxanthine incorporation, clone Dd2. The data set is classed as cell-based. Conditions: Plasmodium falciparum. As to the method:
as §3
The Dd2 clone of P. falciparum, which was both chloroquine and pyrimethamine resistant, was utilized to compare the antimalarial activity of the remaining CNI compounds (Table VIII).

In data set [4] the test system is Plasmodium falciparum clone FCR-3. Kind of data set: Antimalarial activity in vitro, hypoxanthine incorporation, clone FCR-3. Conditions: FCR3, read-out: CNI-0294 IC50. The data set is classed as cell-based. As to the method: as §3
Data set [5] deals with Plasmodium falciparum clone HB3. The data set is described as follows: Antimalarial activity in vitro, hypoxanthine incorporation, clone HB3. Conditions: HB3, read-out: CNI-0294 IC50. The format is cell-based. As to the method: as §3
In data set [6] the test system is Plasmodium falciparum clone W2mef. Kind of data set: Antimalarial activity in vitro, hypoxanthine incorporation, clone W2mef. The format is cell-based. Conditions: read-out: CNI-0294 IC50. As to the method:
as §3

In the next data set the test system is Plasmodium falciparum. Kind of data set: Antimalarial activity in vitro, hypoxanthine incorporation, series of clones. The data set is classed as cell-based. As to the method:
as §3

The next data set relates to Plasmodium berghei. The data set is described as follows: Four day suppression test in Plasmodium berghei infected mice. The format is in vivo, Plasmodium berghei NYU-2 in female ND4 Swiss Webster mice. As to the method: FIG. 9. The activity of CNI-0294 against Plasmodium berghei infected mice. Female ND4 Swiss Webster mice were infected with infected erythrocytes and then treated once daily, for four days, with 50 mg/kg CNI-0294, or with distilled water. Six hours after the last dose, thin blood smears were made from each of the animals and the parasitemia was determined. The bars represent the median parasitemia (n=4 for controls and n=5 for treated).
The antimalarial activity of CNI-0294 in vivo was assessed by infecting female ND4 Swiss Webster mice with 100 μl of Plasmodium berghei NYU-2 infected mouse erythrocytes (50% parasitemia) by intraperitoneal injection. The animals were subsequently injected intraperitoneally once per day on days 1-4 of the infection with 0.5 ml water or 0.5 ml of 50 mg/kg CNI-0294 in water. Four hours after the final injection, small blood samples were taken from the tail, and thin smears stained with Dif-Quick (Baxter, Miami, Fla.). The parasitemia of control and treated animals was enumerated by inspection of at least 1000 erythrocytes in each animal.

The conditions of data set [7]: mouse, in vivo.
The next data set is described as follows: in vivo. Conditions: mouse, plasma, 50 mg/kg.
Data set [8] concerns importation of HIV-1 into the nucleus. Conditions: 0.1M peptide in medium; aphidicolin-arrested CD4+ MT4 cells; cited from earlier work.

“And” between values parts separate entries of the source, which are not always exact repeats. Equal entries are not always repeated. “Also recorded” adds a separate entry of the source. Where two headings read alike, the source gives them in different places.

With `Nc1nc2c(ncn2[C@@H]2O[C@H](COP(=O)(O)OP(=O)(O)OP(O)(O)=S)[C@@H](O)[C@H]2O)c(=O)[nH]1` [(γ-S)GTP], in the data set with nuclear localization, the “inhibition of nuclear localization” value is recorded as “blocked”.
In turn, `CC(=O)c1cc(Nc2cc(C)[n+](C)c(N)n2)cc(C(C)=O)c1.[Cl-]` [CNI-0294, 2-amino-4-(3,5-diacetylphenyl)amino-1,6-dimethylpyrimidinium chloride] came in with an LD50 in data set [1] of 588 ± 65.8 mg/kg. For the same molecule, in the data set with mice, the “signs and time of toxic reactions / death” value is reported as “no overt signs of toxicity detectable at doses approaching the LD50”; the tolerability result is “very well tolerated; also recorded: well tolerated”. In addition, in the data set “in vitro” (mouse liver post-mitochondrial supernatant, NADPH), the number of metabolites entry is “three minor and one major metabolite”. In the data set “in vitro” (mouse, liver post-mitochondrial supernatant, 60 min incubation, by peak area, read-out: drug altered (metabolic conversion)), the metabolised at 1 h worked out at 43.5%. Moreover, the IC50 in data set [2] is 4 ± 0.41 µM. In [3] (DD2, read-out: CNI-0294 IC50), the IC50 was 3.52 ± 0.1 µM. Moreover, the IC50 in data set [3] (DD2, read-out: IC50 ± standard deviation) turned out to be 3.67 ± 0.57 µM. The IC50 in [4] stood at 3.09 ± 0.3 µM. Moreover, the IC50 in data set [5] was determined as 1.79 ± 0.27 µM. Moreover, the IC50 in data set [6] stood at 2.29 ± 0.22 µM. Moreover, in the data set on Plasmodium falciparum, the “anti-malarial activity in vitro” value is reported as “considerable anti-malarial activity; also recorded: effective against various clones of P. falciparum”. In addition, the IC50 in the data set with Plasmodium falciparum (Plasmodium falciparum, series of cloned parasites, read-out: median inhibitory concentration (IC50)) lay within 1.79 to 4 µM. In the data set with Plasmodium berghei (50 mg/kg i.p. daily for 4 days), the “suppression / cure of P. berghei infection” value is on record as “strongly suppress P. berghei infection in mice; also recorded: not completely cured”. In addition, the reduction of parasitemia with Plasmodium berghei (50 mg/kg i.p. once daily for four days, P≤0.01) was 10 fold. Moreover, the relative bioavailability in data set [7] stood at 6%. The relative bioavailability in data set [7] (50 mg/kg) is recorded as 6%. Further, in data set [7] (ip, 50 mg/kg), the “A (zero time intercept, distribution phase)” value was 14.00 and 16.07; the “B (zero time intercept, elimination phase)” value is 0.07 and 0.05; the Cltot was determined as 62.70; the VD worked out at 19.80. In addition, in data set [7] (ip, 50 mg/kg), the “duration of therapeutic plasma concentration (range of P. falciparum IC50)” value is reported as “approximately one”; the plasma maximal concentration was 18.76 to 18.93 µg/mL; the t1/2α is 0.62 and 0.40; the t1/2β was 4.62 and 3.65. In [7] (ip, 50 mg/kg), the tmax came out at 5; the α is 1.12 and 1.74; the β stood at 0.19. For the same molecule, in data set [7] (po, 50 mg/kg), the Bioavaliability is given as 0.06 and the “time drug was detectable in plasma” value is given as “at least 6 hr”. In “in vivo” (ip), the CL/F is 35.4 mL/min, the peak concentration (Cmax) worked out at 18800 ng/mL, the Vd/F worked out at 14.1 L and the k el was 4.17e-05 s⁻¹. Also, the Cmax in “in vivo” (po) stood at 400 ng/mL.
On to “SV40 T-antigen NLS: the peptide having the sequence of the SV40 T-antigen NLS (PKKKRKV)”, for which the “block of HIV-1 importation into the nucleus” value in [8] is “blocked the importation of HIV-1 into the nucleus”.

The record behind these values is patent US5840893A, “Compounds for treating infectious diseases” (priority 1996, dated 1998).
